These results are taken from PubChem BioAssay (NCI).

Common to all, as to assay: inhibition of tumour cell growth, NCI panel, 48 h
For assay [1], the system named is SK-OV-3 ovarian.
For assay [2], the system named is UACC-62 melanoma.
Assay [3] concerns HOP-62 NSCLC.
Assay [4] relates to OVCAR-5 ovarian.
Assay [5] relates to UO-31 renal.
Assay [6] has as its system NCI/ADR-RES ovarian.
For assay [7], the system named is NCI-H226 lung.
In assay [8] the test system is IGROV1 ovarian.
Assay [9] relates to SR leukemia.
Assay [10] has as its system CCRF-CEM leukemia.

Values joined by “and” are separate entries in the source; they are usually repeats but may differ in a detail not shown here. Equal entries are not always repeated.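 Growth conditions: 96-well plates. Treatment: test compound, 48 hours, 5 concentrations. Analysis: linear interpolation between bracketing concentrations; unreached endpoints set to highest concentration. The concentration for 50% growth inhibition is given as GI50. TGI: total growth inhibition.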

Regarding `COc1cc(C[C@H]2c3cc(OC)c(OC)cc3CCN2C)c(Oc2cc3c(cc2OC)-c2c(OC)c(OC)cc4c2[C@H](C3)N(C)CC4)cc1OC`, the GI50 was 15.1 µM and 21.1 µM in assay [1]; 19 µM in assay [2]; 19.9 µM in [3]; 18 µM in assay [4]; 9.73 µM in assay [5]; 19.7 µM in assay [7]. Also, the GI50 was 14.2 µM in assay [8], 2.44 µM in [9] and 6.59 µM in assay [10]. Further, the TGI was 40 µM and 36.2 µM in assay [1]; 13.4 µM and 34.2 µM in assay [2]; 24 µM and 35.6 µM in [3]; 33.6 µM and 32.6 µM in [4]; 16.8 µM and 22.6 µM in assay [5]; 32.3 µM in assay [6]. Further, the TGI is 29.4 µM and 34.6 µM in assay [7]; 32.6 µM and 28.3 µM in assay [8]; 28.6 µM and 7.84 µM in assay [9]; 27.6 µM and 22.6 µM in [10].
In the case of `COC(=O)c1nc(-c2ccccc2)oc1S(=O)(=O)Cc1ccccc1`, the GI50 was 70.2 µM in [1]; 6.52 µM in assay [2]; 26.8 µM in [3]; 3.12 µM in assay [4]; 1.48 µM in assay [5]; 16.9 µM in [6]. Besides, the GI50 was 13.9 µM in [7], 2.75 µM in [8], 3.03 µM in assay [9] and 2.91 µM in assay [10]. In addition, the TGI in assay [1] was greater than 100 µM; in assay [2], 20 µM; in assay [3] it was greater than 100 µM; in assay [4], 11.3 µM; in assay [5] it was 2.84 µM; in assay [6] it was 36.3 µM. Moreover, the TGI in assay [7] came to 31.4 µM; in [8], 7.21 µM; in [9], 16.5 µM; in [10], 8.41 µM.
`Nc1c(C(=O)c2cccc(-c3ccncc3)c2)cnn1-c1ccc(F)cc1F`: the GI50 in [1] was 19.8 µM; in [2], 5.34 µM; in assay [3] it was 9.3 µM; in assay [4], greater than 25 µM; in assay [5], 8.96 µM; in assay [6] it was 3.83 µM. Moreover, the GI50 in assay [7] was 4.36 µM; in assay [8] it was 9.98 µM; in assay [9], 1.05 µM; in assay [10], 17 µM. For the same molecule, the TGI in assay [1], in assay [2], in assay [3], in assay [4], in assay [5] and in assay [6] was greater than 25 µM in each case. Besides, the TGI was greater than 25 µM in [7], greater than 25 µM in assay [8], greater than 18.5 µM in assay [9] and greater than 25 µM in [10].
As for `COc1ccc(-c2cc(=O)[nH]c3c(OC)c4ccccc4c(OC)c23)cc1`, the GI50 was 0.606 µM in assay [1]; 0.396 µM in assay [2]; 1.47 µM in assay [3]; 3.58 µM in [4]; 0.725 µM in assay [5]; 0.291 µM in assay [6]. The GI50 in assay [7] is greater than 20 µM; in [8], 0.47 µM; in assay [9], 0.431 µM; in assay [10], 0.401 µM. Besides, the TGI in assay [1], in assay [2], in [3], in [4], in assay [5] and in assay [7] was greater than 100 µM each time. In addition, the TGI in assay [8] was greater than 91.5 µM; in assay [9], greater than 100 µM; in assay [10] it was greater than 100 µM.
For `CN(C)CCN1C(=O)c2ccccc2N(C)c2ccccc21`, the GI50 in [1], in assay [2], in assay [3], in [4], in [5] and in assay [6] was greater than 100 µM in each case. Further, the GI50 in assay [7], in assay [8], in assay [9] and in assay [10] was greater than 100 µM throughout. In addition, the TGI in assay [1], in assay [2], in assay [3], in [4], in assay [5] and in assay [6] was greater than 100 µM each time. The TGI in assay [7], in [8], in assay [9] and in assay [10] was greater than 100 µM each time.
For the molecule `Cc1cc2c(cc1C)N(C(=O)CCl)CC(=O)N2`, the GI50 was 12.2 µM in [1]; 3.54 µM in [2]; 3.3 µM in [3]; 2.53 µM in assay [4]; 1.74 µM in assay [5]; 3.18 µM in assay [6]. The GI50 in assay [8] was 2.22 µM; in [9], 2.65 µM; in [10] it was 2.01 µM. The TGI is 24.6 µM in assay [1]; 12.7 µM in assay [2]; 12 µM in [3]; 5.33 µM in assay [4]; 3.24 µM in assay [5]; greater than 100 µM in assay [6]. The TGI in assay [8] was 4.45 µM; in assay [9] it was 7.04 µM; in assay [10], 5.49 µM.
Regarding `CC/C=C1/C(=O)C=C[C@@H]1C/C=C\CCCC(=O)OC`, the GI50 is 7.15 µM in assay [1]; 1.97 µM in assay [2]; 3.39 µM in assay [3]; 4.73 µM in assay [4]; 2.24 µM in [5]; 2.88 µM in assay [6]. Further, the GI50 in [7] is 13.7 µM; in assay [8], 3.76 µM; in assay [9] it was 0.563 µM; in [10] it was 0.519 µM. Moreover, the TGI is 19.5 µM in [1]; 4.6 µM in assay [2]; 11.9 µM in [3]; 15.1 µM in [4]; 5.43 µM in [5]; 14.5 µM in [6]. Also, the results for the TGI in assay [7], in [8] and in assay [10] were 31.2 µM, 15.8 µM and 10.6 µM, respectively.
For the molecule `C=C(C)C(=O)Nc1ccc(NC(C)C)cc1`, the GI50 in assay [1], in assay [2], in [3], in [4], in assay [5] and in assay [6] was greater than 100 µM in each case. Besides, the GI50 in assay [7], in [8], in assay [9] and in assay [10] was greater than 100 µM throughout. The TGI in assay [1], in assay [2], in assay [3], in [4], in [5] and in [6] was greater than 100 µM each time. The TGI in assay [7], in assay [8], in [9] and in assay [10] was greater than 100 µM in each case.
For the molecule `COc1cc2c(cc1C)NC(=O)/C2=C/c1ccccn1`, the GI50 is 3.41 µM in assay [1]; 2.85 µM in assay [2]; 4.24 µM in assay [3]; 3.46 µM in assay [4]; 12.2 µM in assay [5]; 2.42 µM in assay [6]. Further, the GI50 was 1.54 µM in assay [7], 9.6 µM in assay [8], 3.18 µM in assay [9] and 0.782 µM in assay [10]. Further, the TGI is greater than 100 µM in [1]; 13.9 µM in [2]; greater than 100 µM in assay [3]; 43.9 µM in assay [4]; greater than 100 µM in assay [5]; 6.27 µM in assay [6]. Besides, the TGI is 4.86 µM in assay [7], greater than 100 µM in [8], greater than 100 µM in assay [9] and greater than 100 µM in assay [10].
With `COc1ccc(-c2c[nH]c(C(=O)O)c2-c2cc(OC)c(OC)c(OC)c2)cc1`, the GI50 in [1] was 5.82 µM; in assay [2], 4.13 µM; in assay [3], 5.87 µM; in assay [4] it was 9.98 µM; in assay [5], 5.02 µM; in assay [6], 3.8 µM. Besides, the GI50 in [7] is 4.59 µM; in [8], 5.5 µM; in assay [9], 2.92 µM; in assay [10], 4.08 µM. Moreover, the TGI in assay [1], in assay [2], in assay [3], in [4], in [5] and in assay [6] was greater than 100 µM each time. For the same molecule, the TGI in assay [7], in assay [8], in [9] and in assay [10] was greater than 100 µM each time.
In the case of `O=C1Nc2ccccc2/C1=C/C(=O)c1coc2c1C(=O)c1ccccc1C2=O`, the GI50 in [1] was greater than 100 µM; in [2] it was 94.4 µM; in assay [4] it was greater than 100 µM; in assay [5], 70.4 µM; in assay [6], greater than 100 µM; in assay [7] it was greater than 100 µM. In addition, the GI50 in assay [8] was greater than 100 µM; in assay [9], 80.4 µM; in assay [10], greater than 100 µM. For the same molecule, the TGI in assay [1], in assay [2], in assay [4], in assay [5], in assay [6] and in assay [7] was greater than 100 µM throughout. Also, the TGI in assay [8], in assay [9] and in assay [10] was greater than 100 µM each time.
Take `COc1ccc(C(=O)OC2C(OC3C(O)COC(O[C@H]4C[C@H]5[C@@H]6CC=C7C[C@@H](O)CC[C@]7(C)[C@H]6CC[C@]5(C)[C@H]4[C@H](C)C(=O)CCC(C)C)C3OC(N)=O)OCC(O)C2O)cc1` (stereo partly specified): the GI50 was 0.0423 µM in [1]; 0.00978 µM in assay [2]; 0.0247 µM in assay [3]; 0.555 µM in [4]; 0.0944 µM in assay [5]; 13.9 µM in [6]. Besides, the GI50 in assay [8] was 0.0282 µM; in assay [9], 0.00567 µM; in assay [10], less than 0.003 µM. The TGI came to 1.34 µM in [1]; 0.04 µM in assay [2]; 1.7 µM in [3]; 6.48 µM in [4]; 0.425 µM in [5]; 30 µM in assay [6]. The values for the TGI in assay [8], in [9] and in assay [10] were 3.69 µM, 0.493 µM and 0.0966 µM, respectively.
Turning to `CC(C)(C)n1cc(-c2ccnc(NCCCNS(=O)(=O)c3ccc(C(F)(F)F)cc3)c2)c(-c2cccc(O)c2)n1`, the GI50 in assay [1] is 2.69 µM; in assay [2] it was 1.69 µM; in assay [3] it was 1.93 µM; in assay [4], 1.81 µM; in assay [5], 1.58 µM; in assay [6], 2.07 µM. Further, the GI50 in [7] is 2.35 µM; in assay [8] it was 1.8 µM; in assay [9], 2.21 µM. The TGI was 6.75 µM in assay [1]; 3.23 µM in [2]; 3.85 µM in assay [3]; 3.4 µM in [4]; 3.06 µM in assay [5]; 4.3 µM in assay [6]. In addition, the TGI came to 5.71 µM in [7], 3.55 µM in assay [8] and 10.5 µM in [9].
`COc1cnc2c(c1)C(=O)c1c-2n(CCCn2ccnc2)c(=O)c2cc(F)ccc12`: the GI50 in [1] is 0.0162 µM; in [3] it was less than 0.01 µM; in assay [4], 0.119 µM; in assay [5] it was less than 0.01 µM; in [6], 0.0193 µM; in [7] it was 0.0251 µM. For the same molecule, the GI50 in assay [9] was less than 0.01 µM. Further, the TGI was 0.327 µM in [1]; 0.176 µM in assay [3]; 0.789 µM in [4]; 0.147 µM in [5]; greater than 100 µM in [6]; 0.213 µM in assay [7]. The molecule further came in with a TGI in [9] of 0.76 µM.
For `Fc1ccc2c(c1)C1=NN(c3ccccc3)C(F)C1CO2` (stereo unspecified), the GI50 in [1] was 25.3 µM; in assay [2] it was 6.43 µM; in assay [3] it was 19 µM; in assay [4], 18.1 µM; in assay [5] it was 13.3 µM; in assay [6] it was 7.57 µM. For the same molecule, the GI50 is 8.08 µM in assay [7], 15.2 µM in assay [8] and 25.7 µM in assay [9]. Further, the TGI in assay [1] was greater than 50 µM; in [2] it was 14 µM; in assay [3], greater than 50 µM; in assay [4] it was greater than 50 µM; in assay [5] it was greater than 50 µM; in assay [6], 18.9 µM. In addition, the TGI is 19.1 µM in assay [7], greater than 50 µM in [8] and greater than 50 µM in [9].
